Assays:
LOLRI [1] = test: A. Herbicidal pre-emergence action on harmful plants (Tables A); assay type: in vivo, Lolium rigidum; conditions: visual grading after ca. 3 weeks vs untreated controls, 100% = plants have died off, 0% = as control plants
Procedure, shortened: (§1)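 Values are visual percent damage relative to untreated controls, scored ca. 3 weeks after the compound was sprayed on the covering soil of sown pots (sandy loam) at rates up to 1280 g/ha, formulated as WP or EC with 0.5% additive.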

MATIN [2] = test: as above; assay type: in vivo, Matricaria inodora; conditions: visual grading after ca. 3 weeks vs untreated controls, 100% = plants have died off, 0% = as control plants
Procedure, shortened: as §1

POAAN = test: as above; assay type: in vivo, Poa annua
Procedure, shortened: as §1

ALOMY [3] = test: as above; assay type: in vivo, Alopecurus myosuroides
Procedure, shortened: as §1

ECHCG [4] = test: B. Herbicidal post-emergence action on harmful plants (Tables B); assay type: in vivo, Echinochloa crus-galli
Procedure, shortened: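 Greenhouse weeds grown in sandy loam were sprayed post-emergence at the one-leaf stage, 2-3 weeks after sowing. Compounds were applied as WP or EC in water with 0.5% additive at 600 L/ha, at 1280 g/ha or below. Visual damage was rated after about 3 weeks versus untreated plants (0-100%).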

ALOMY [5] = test: C. Herbicidal pre-emergence action, weed and crop plants (Tables C); assay type: in vivo, Alopecurus myosuroides
Excerpt: (§2) Seeds of mono- and dicotyledonous weed plants and crop plants were sown, in plastic or organic planting pots, in sandy loam and covered with soil. The compounds according to the invention, formulated in the form of wettable powders (WP) or as emulsifiable concentrates (EC), were applied to the surface of the covering soil as aqueous suspension or emulsion, with the addition of 0.5% of an additive, at an application rate of 6001 of water/ha (converted). Following treatment, the pots were placed in a greenhouse and kept under optimum growth conditions for the test plants. The visual grading of the damage to the test plants was carried out after ca. 3 weeks in comparison to untreated controls (herbicidal effect in percent (%): 100% effect = plants have died off, 0% effect = as control plants). Tables C1 to C12 below show the effects of selected compounds of the general formula (I) according to table 1 on various harmful plants and an application rate corresponding to 320 g/ha or below obtained by the experimental procedure mentioned above. Table C1: pre-emergence activity at 320g/ha against KCHSC in %

ECHCG [6] = test: as above; assay type: in vivo, Echinochloa crus-galli
Excerpt: as §2

LOLRI [7] = test: as above; assay type: in vivo, Lolium rigidum; conditions: application rate 320 g/ha; Table C7a
Excerpt: as §2

MATIN [8] = test: as above; assay type: in vivo, Matricaria inodora; conditions: application rate 320 g/ha; Table C8
Excerpt: as §2

SETVI = test: as above; assay type: in vivo, Setaria viridis; conditions: application rate 320 g/ha; Table C10
Excerpt: as §2

BRSNW = test: D. Pre-emergence effects on crop plants (Tables D); assay type: in vivo, Brassica napus; conditions: crop plant
Procedure, shortened: (§3)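 Seeds sown in sandy loam and covered; WP or EC formulations sprayed onto the soil surface as aqueous suspension/emulsion with 0.5% additive, at 320 g/ha or below. Greenhouse-grown; visual damage scored after ca. 3 weeks against untreated controls (0% = as control, 100% = plants dead).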

DIGSA = test: C. Herbicidal pre-emergence action, weed and crop plants (Tables C); assay type: in vivo, Digitaria sanguinalis
Excerpt: as §2

GLXMA = test: D. Pre-emergence effects on crop plants (Tables D); assay type: in vivo, Glycine max; conditions: crop plant
Procedure, shortened: as §3

[9] = application rate 80 g/ha, Table A7c
[10] = application rate 320 g/ha, Table A7b
[11] = application rate 1280 g/ha, visual grading after ca. 3 weeks vs untreated controls, 100% = plants have died off, 0% = as control plants
[12] = application rate 320 g/ha, Table A9b
[13] = application rate 1280 g/ha, Table A9a
[14] = application rate 320 g/ha, Table B2b
[15] = application rate 1280 g/ha, Table B2a
[16] = application rate 80 g/ha, Table C2b
[17] = application rate 320 g/ha, Table C2a
[18] = application rate 80 g/ha, Table C6b
[19] = application rate 320 g/ha, Table C6a
[20] = application rate 320 g/ha, Table C5a
[21] = application rate 80 g/ha, Table D4b
[22] = application rate 320 g/ha, Table D4a

## COCc1nn(C)cc1C(=O)N1CCCC1Cc1ccccc1F (single isomer, unassigned) [Example I-003]
LOLRI [1]; application rate 80 g/ha
  pre-emergence activity against LOLRI: 100%
LOLRI [1]; application rate 320 g/ha
  pre-emergence activity against LOLRI: 100%
LOLRI [1]; application rate 1280 g/ha
  pre-emergence activity against LOLRI: 100%
MATIN [2]; application rate 320 g/ha
  pre-emergence activity against MATIN: 90%
MATIN [2]; application rate 1280 g/ha
  pre-emergence activity against MATIN: 90%
POAAN; [9]
  pre-emergence activity against POAAN: 100%
POAAN; [10]
  pre-emergence activity against POAAN: 100%
POAAN; [11]
  pre-emergence activity against POAAN: 100%
ALOMY [3]; [12]
  pre-emergence activity against ALOMY: 100%
ALOMY [3]; [13]
  pre-emergence activity against ALOMY: 100%
ECHCG [4]; [14]
  post-emergence activity against ECHCG: 90%
ECHCG [4]; [15]
  post-emergence activity against ECHCG: 90%
ALOMY [5]; [16]
  pre-emergence activity against ALOMY: 90%
ALOMY [5]; [17]
  pre-emergence activity against ALOMY: 100%
ECHCG [6]; [18]
  pre-emergence activity against ECHCG: 90%
ECHCG [6]; [19]
  pre-emergence activity against ECHCG: 90%
LOLRI [7]
  pre-emergence activity against LOLRI: 90%
MATIN [8]
  pre-emergence activity against MATIN: 80%
SETVI
  pre-emergence activity against SETVI: 80%
BRSNW; application rate 80 g/ha
  pre-emergence activity against BRSNW in %: 0%
BRSNW; application rate 320 g/ha
  pre-emergence activity against BRSNW in %: 0%

## Cn1cc(C(=O)N2CCCC2Cc2ccc(F)cc2F)c(COc2ccccc2)n1 (racemic) [Example I-008]
MATIN [2]; application rate 1280 g/ha
  pre-emergence activity against MATIN: 90%
POAAN; [9]
  pre-emergence activity against POAAN: 100%
POAAN; [10]
  pre-emergence activity against POAAN: 100%
POAAN; [11]
  pre-emergence activity against POAAN: 100%
ALOMY [3]; [12]
  pre-emergence activity against ALOMY: 100%
ALOMY [3]; [13]
  pre-emergence activity against ALOMY: 100%
ALOMY [5]; [17]
  pre-emergence activity against ALOMY: 100%
DIGSA; [20]
  pre-emergence activity against DIGSA: 90%
ECHCG [6]; [19]
  pre-emergence activity against ECHCG: 90%
SETVI
  pre-emergence activity against SETVI: 90%
GLXMA; [21]
  pre-emergence activity against GLXMA: 20%
BRSNW; application rate 80 g/ha
  pre-emergence activity against BRSNW in %: 0%
BRSNW; application rate 320 g/ha
  pre-emergence activity against BRSNW in %: 10%

## CNC(=O)n1cc(C(=O)N2CCCC2Cc2ccccc2F)c(COC)n1 (racemic) [Example I-051]
LOLRI [1]; application rate 80 g/ha
  pre-emergence activity against LOLRI: 100%
LOLRI [1]; application rate 320 g/ha
  pre-emergence activity against LOLRI: 100%
LOLRI [1]; application rate 1280 g/ha
  pre-emergence activity against LOLRI: 100%
MATIN [2]; application rate 1280 g/ha
  pre-emergence activity against MATIN: 90%
POAAN; [9]
  pre-emergence activity against POAAN: 90%
POAAN; [10]
  pre-emergence activity against POAAN: 100%
POAAN; [11]
  pre-emergence activity against POAAN: 100%
ALOMY [3]; [12]
  pre-emergence activity against ALOMY: 90%
ALOMY [3]; [13]
  pre-emergence activity against ALOMY: 90%
ECHCG [4]; [15]
  post-emergence activity against ECHCG: 90%
ALOMY [5]; [16]
  pre-emergence activity against ALOMY: 80%
ALOMY [5]; [17]
  pre-emergence activity against ALOMY: 90%
DIGSA; application rate 80 g/ha, Table C5b
  pre-emergence activity against DIGSA: 90%
DIGSA; [20]
  pre-emergence activity against DIGSA: 100%
ECHCG [6]; [18]
  pre-emergence activity against ECHCG: 100%
ECHCG [6]; [19]
  pre-emergence activity against ECHCG: 100%
LOLRI [7]
  pre-emergence activity against LOLRI: 90%
SETVI
  pre-emergence activity against SETVI: 80%
GLXMA; [21]
  pre-emergence activity against GLXMA: 0%
BRSNW; application rate 80 g/ha
  pre-emergence activity against BRSNW in %: 0%
BRSNW; application rate 320 g/ha
  pre-emergence activity against BRSNW in %: 0%

## COCc1nn2c(c1C(=O)N1CCCC1Cc1ccccc1F)CCC2 (racemic) [Example I-022]
LOLRI [1]; application rate 320 g/ha
  pre-emergence activity against LOLRI: 100%
LOLRI [1]; application rate 1280 g/ha
  pre-emergence activity against LOLRI: 100%
MATIN [2]; application rate 1280 g/ha
  pre-emergence activity against MATIN: 90%
POAAN; [9]
  pre-emergence activity against POAAN: 90%
POAAN; [10]
  pre-emergence activity against POAAN: 100%
POAAN; [11]
  pre-emergence activity against POAAN: 100%
ALOMY [3]; [12]
  pre-emergence activity against ALOMY: 90%
ALOMY [3]; [13]
  pre-emergence activity against ALOMY: 90%
DIGSA; [20]
  pre-emergence activity against DIGSA: 90%
ECHCG [6]; [19]
  pre-emergence activity against ECHCG: 90%
LOLRI [7]
  pre-emergence activity against LOLRI: 100%
GLXMA; [21]
  pre-emergence activity against GLXMA: 0%
GLXMA; [22]
  pre-emergence activity against GLXMA: 0%
BRSNW; application rate 80 g/ha
  pre-emergence activity against BRSNW in %: 0%
BRSNW; application rate 320 g/ha
  pre-emergence activity against BRSNW in %: 0%

## COCc1c(C(=O)N2CCCC2Cc2ccccc2F)cnn1C (single isomer, unassigned) [Example I-157]
LOLRI [1]; application rate 320 g/ha
  pre-emergence activity against LOLRI: 90%
LOLRI [1]; application rate 1280 g/ha
  pre-emergence activity against LOLRI: 90%
MATIN [2]; application rate 1280 g/ha
  pre-emergence activity against MATIN: 90%
POAAN; [9]
  pre-emergence activity against POAAN: 100%
POAAN; [10]
  pre-emergence activity against POAAN: 100%
POAAN; [11]
  pre-emergence activity against POAAN: 100%
ALOMY [3]; [12]
  pre-emergence activity against ALOMY: 100%
ALOMY [3]; [13]
  pre-emergence activity against ALOMY: 100%
ALOMY [5]; [17]
  pre-emergence activity against ALOMY: 90%
DIGSA; [20]
  pre-emergence activity against DIGSA: 90%
ECHCG [6]; [19]
  pre-emergence activity against ECHCG: 80%
LOLRI [7]
  pre-emergence activity against LOLRI: 90%
GLXMA; [22]
  pre-emergence activity against GLXMA: 0%
BRSNW; application rate 80 g/ha
  pre-emergence activity against BRSNW in %: 0%
BRSNW; application rate 320 g/ha
  pre-emergence activity against BRSNW in %: 0%

## COCc1c(C(=O)N2CCCC2Cc2ccccc2Cl)cnn1C (racemic) [Example I-170]
LOLRI [1]; application rate 320 g/ha
  pre-emergence activity against LOLRI: 90%
LOLRI [1]; application rate 1280 g/ha
  pre-emergence activity against LOLRI: 90%
MATIN [2]; application rate 1280 g/ha
  pre-emergence activity against MATIN: 90%
POAAN; [9]
  pre-emergence activity against POAAN: 100%
POAAN; [10]
  pre-emergence activity against POAAN: 100%
POAAN; [11]
  pre-emergence activity against POAAN: 100%
ALOMY [3]; [13]
  pre-emergence activity against ALOMY: 90%
ECHCG [4]; [14]
  post-emergence activity against ECHCG: 90%
ECHCG [4]; [15]
  post-emergence activity against ECHCG: 90%
ALOMY [5]; [16]
  pre-emergence activity against ALOMY: 90%
ALOMY [5]; [17]
  pre-emergence activity against ALOMY: 90%
ECHCG [6]; [18]
  pre-emergence activity against ECHCG: 90%
ECHCG [6]; [19]
  pre-emergence activity against ECHCG: 90%
LOLRI [7]
  pre-emergence activity against LOLRI: 90%
MATIN [8]
  pre-emergence activity against MATIN: 80%
GLXMA; [22]
  pre-emergence activity against GLXMA: 0%
BRSNW; application rate 80 g/ha
  pre-emergence activity against BRSNW in %: 0%
BRSNW; application rate 320 g/ha
  pre-emergence activity against BRSNW in %: 0%

## Cn1cc(C(=O)N2CCCC2Cc2ccccc2F)c(COc2ccccc2)n1 (racemic) [Example I-006]
LOLRI [1]; application rate 1280 g/ha
  pre-emergence activity against LOLRI: 90%
MATIN [2]; application rate 1280 g/ha
  pre-emergence activity against MATIN: 90%
POAAN; [9]
  pre-emergence activity against POAAN: 100%
POAAN; [10]
  pre-emergence activity against POAAN: 100%
POAAN; [11]
  pre-emergence activity against POAAN: 100%
ALOMY [3]; [12]
  pre-emergence activity against ALOMY: 90%
ALOMY [3]; [13]
  pre-emergence activity against ALOMY: 100%
ECHCG [4]; [15]
  post-emergence activity against ECHCG: 100%
ALOMY [5]; [17]
  pre-emergence activity against ALOMY: 90%
DIGSA; [20]
  pre-emergence activity against DIGSA: 100%
BRSNW; application rate 80 g/ha
  pre-emergence activity against BRSNW in %: 0%
BRSNW; application rate 320 g/ha
  pre-emergence activity against BRSNW in %: 10%

— patent EP4417602A1, “SUBSTITUTED PYRAZOLE CARBOXAMIDES, SALTS THEREOF AND THEIR USE AS HERBICIDALLY ACTIVE SUBSTANCES” (Bayer AG, priority 2023, dated 2024)
